Laboratory results reported in patent US11723911B2, “Treatment of demyelinating diseases” (M ET P PHARMA AG, priority 2018, dated 2023).

How the values were obtained:
[1] = test system: LPC-induced demyelination in young male adult mice; test: LPC-induced demyelination of the corpus callosum with or without SAG (immunostaining at 2 and 10 dpl); format: in vivo, mouse
Method: Image Acquisition and Analysis. Images were taken using the microscope analyzing system Axiovision 4.2 (Carl Zeiss, Inc.), the confocal Zeiss LSM 510-Meta Confocor 2 and the scanner imager with the CaseViewer software. Analyses were performed with ImageJ software. At least 10 sections per mouse were analyzed and data are the mean of 3-5 mice. For the brains derived from the lysolecithin (LPC)-injected animals, immunofluorescent-positive cells or areas were determined in one every other 5 sections throughout the whole demyelinated lesion per mouse and averaged for each animal. The lesion surface was determined by measuring the area of the nuclear densification (correlated with myelin loss visualized by MBP or PLP staining) one every other 5 slices through the whole demyelinated lesion.
The effect of Smo activation by the Smo agonist SAG on demyelination was investigated as follows. LPC-induced demyelination was performed as previously described in Ferent et al., J. Neuroscience 33:1759-1772 (2013), in the absence or presence of SAG, in young male adult mice. Briefly, demyelinating lesions were induced unilaterally by stereotaxic injections of 2 μl of a solution containing LPC 1% (Sigma-Aldrich) along with SAG (0.2 μM) or the corresponding vehicle, into the right corpus callosum by using a Hamilton syringe specifically dedicated for neural surgery (NH BIO, France). The injection was performed at the following coordinates (to the bregma): anteroposterior (AP)+1 mm, lateral+1 mm, dorsoventral (DV) −2.2 mm. The brain was removed from deeply anesthetized mice and transcardially perfused with 4% PFA. The tissue was post-fixed for 4 hours in a fresh 4% PFA solution before being cryopreserved in 30% sucrose, frozen in liquid nitrogen and cryostat sectioned (14 μm). 4-5 mice were used per time point for each treatment condition. Mice were sacrificed at 2 and 10 days post-lesion (dpl), and prepared for immunostaining of PDGFRα, Olig2/APC, Ki67/PDGFRα, GFAP, and Iba1/Arg1. Images of immunostaining were acquired using immunofluorescence microscopy (data not shown), and the results were quantified by evaluating number of cells per surface unit for PDGFRα (FIG. 4A), Olig2/APC (FIG. 4B), Ki67/PDGFRα (FIG. 4C), GFAP (FIG. 4D), Iba1/Arg1 (FIG. 4E)

[2] = test system: experimental autoimmune encephalomyelitis (EAE) in castrated male mice; test: Experimental autoimmune encephalomyelitis (EAE): clinical score, electron microscopy and immunostaining of lumbar spinal cord; format: in vivo, mouse; conditions: for density of myelinated axons in spinal cord (electron microscopy) / g-ratio (axon diameter/total outer diameter of the myelinated fiber) / percentage of abnormal axons among total axons: 30 days post EAE induction; for g-ratio (axon diameter/total outer diameter of the myelinated fiber): small calibre axons (≤2.5 μm), n=3; for total density of activated Iba1+ microglia in the spinal cord: FIG. 5E; for EAE clinical score: between days 21 and 30, testosterone intranasal 0.2 mg/day, SAG oral gavage every other day; for area occupied by Arg1+ cells as percentage of the total area of the lesion: lumbar spinal cord, FIG. 5F; for percentage of abnormal axons among total axons / GFAP-positive area as percentage of the lesion area: spinal cord; for GFAP-positive area as percentage of the lesion area: FIG. 5G
Method: Electron microscopy. […] The g ratio (the ratio between the axon diameter and fiber diameter corresponding to myelin sheath+axon diameter) was estimated by measuring the minimum and maximum axon diameter and fiber diameter for each axon using ImageJ software. At least 300 randomly chosen myelinated axons were evaluated for each animal.
The pathology was induced according to the instructions from the provider (Hooke Laboratories, MA, USA). Briefly, mice were immunized by subcutaneous injection of an emulsion of MOG35-55 peptide (myelin oligodendrocyte glycoprotein[…] fragment 35-55) in complete Freund's adjuvant (at two sites using 0.1 ml of the pre-conditioned mixture for each site) followed on the same day (Day 0) by a first intraperitoneal injection of pertussis toxin in PBS and by a second one on Day 1 (250 ng/dose). The mice were scored blindly once a day starting at Day 7 post-immunization until Day 30 according to the following scale: 0.0=no obvious changes in motor function; 0.5=tip of tail is limp; 1.0=limp tail; 1.5=limp tail and hind leg inhibition; 2.0=limp tail and weakness of hind legs or signs of head tilting; 2.5=limp tail and dragging of hind legs or signs of head tilting; 3.0=limp tail and complete paralysis of hind legs or limb tail with paralysis of one front and one hind leg; 3.5=limp tail and complete paralysis of hind legs and animal unable to right itself when placed on its side; 4.0=limb tail, complete hind leg and partial front leg paralysis with minimal moving and feeding; 4.5=complete hind and partial front leg paralysis with no movement around the cage with the animal appearing no more alert; 5.0=extreme paralysis which requires euthanasia of the animal.
The active agents were administered at the onset of clinical symptoms until Day 30 after immunization. Testosterone was administered via the intranasal route (0.2 mg/day in a volume of 2.5 μl in each nostril) in an oleogel composition as described above. SAG was administered orally by gavage ([…] of mouse weight) every other day.
The animals were sacrificed by ketamine overdose. The spinal cord/vertebrae was removed and lumbar spinal cord/vertebrae samples were treated according to the requirements of the various histological procedures. For immunostaining, the spinal cord/vertebrae fragments were post-fixed in PFA 4% for 24 hrs. The spinal cords were removed from the vertebral column, processed in an ethanol/xylene bath and embedded in paraffin blocks. 7-μm sections were then obtained using a microtome (Leica) and allowed to dry on glass slides overnight at 37° C. For electron microscopy, the spinal cord/vertebrae fragments were post-fixed in a mixture of PFA 2% and glutaraldehyde 2% for 5 days. The spinal cords were removed from the vertebral column, post-fixed in cacodylate-buffered 1% osmium tetroxide for 1 hour at 4° C. and in 2% uranyl acetate for 1 hour at room temperature, and then dehydrated by serial dilutions of ethanol and embedded in epoxy resin. Ultrathin sections were contrasted with a saturated uranyl acetate solution.

[3] = test system: primary mixed glial cells; test: Proliferation of Olig2+ cells (BrdU incorporation) in primary mixed glial cell cultures; format: cell-based, mouse; conditions: for Olig2+ BrdU+ proliferating cells as percentage of total Olig2+ cells: SAG 1 μM or testosterone 1 μM from 5 to 12 DIV, BrdU 2 hours before end of culture
Method: Primary glial cell cultures were prepared from the dorsal telencephalon of newborn (P1) male mice as previously described in Feutz et al, J. Neurocytol, “Isolation and characterization of defective jimpy oligodendrocytes in culture”, 24:865-877 ([…]). Briefly, meninges are removed, and the dorsal telencephalons are microdissected and mechanically dissociated in DMEM supplemented with 10% calf serum, penicillin (50 U/ml), and streptomycin (50 μg/ml) (Thermo Fisher Scientific, France). The cell suspension is plated in a 24-well plates containing 0.5 ml of cultured medium coated with 30 μg/ml poly-1-lysine (Sigma-Aldrich). Cultures containing astrocytes, oligodendrocytes (OLs) and microglia cells are then incubated in 5% CO2 and 95% air in a humidified atmosphere (90%) at 37° C.
[…]. The supplemented culture medium was replaced every other day with a fresh solution. At 12 DIV, the cells were fixed for 20 minutes with 4% paraformaldehyde (PFA) in PBS, then permeabilized with 0.025% Triton X-100 for 10 minutes and blocked for 1 hour with Sea Block buffer (Thermo Fisher Scientific).
The cells were immunostained for BrdU and Olig2. For immunostaining, after overnight incubation with the primary antibodies at 4° C. followed by 3 washes in PBS, the cells were incubated with the appropriate secondary antibodies for 2 hours before washing with PBS and the addition of Fluoromount (Vector, clinisciences, France) as the mounting medium. Images were acquired with immunofluorescence microscopy as described above. (Data not shown).

[4] = test system: primary mixed glial cells derived from Plp-EGP mice; test: Differentiation of PLP+ oligodendroglial cells co-expressing MBP in primary mixed glial cells from Plp-EGFP mice; format: cell-based, mouse; conditions: for fold increase in the percentage of PLP+ cells co-expressing MBP compared to control / percentage of PLP+ cells co-expressing MBP: SANT 0.1 μM, testosterone 1 μM, alone or together; for percentage of PLP+ cells co-expressing MBP: 12 DIV
Method: Briefly, meninges are removed, and the dorsal telencephalons are microdissected and mechanically dissociated in DMEM supplemented with 10% calf serum, penicillin (50 U/ml), and streptomycin (50 μg/ml) (Thermo Fisher Scientific, France). The cell suspension is plated in a 24-well plates containing 0.5 ml of cultured medium coated with 30 μg/ml poly-1-lysine (Sigma-Aldrich).
The supplemented culture medium was replaced every other day with a fresh solution.
To analyse differentiation of myelin producing cells, the primary mixed glial cells were derived from Plp-EGP mice and cultured as described above. Detection of PLP+ cells co-expressing MBP was performed by using primary mixed glial cells derived from Plp-EGP mice and immunostaining for Mbp. Immunofluorescence images were acquired as described above and the number of PLP^+ cells co-expressing MBP were evaluated.

[5] = test system: postnatal day 10 male pups; test: Developmental myelination in male pups treated subcutaneously from P3 to P10 (MBP/NF200 immunostaining); format: in vivo, mouse; conditions: s.c. every other day from P3, SANT 20 μg/g, testosterone 20 μg
[6] = test system: LPC-induced demyelination model, castrated male mice; test: Phosphorylated STAT3-expressing astrocytes in castrated male mice demyelinated by lysolecithin; format: in vivo, mouse
From the text: […]. The latter is important for both remyelination and astrocyte reactivity, which is similar to activated microglia involved in local inflammation. […].

Row | Compound | density of myelinated axons in spinal cord (electron microscopy) [2] | g-ratio (axon diameter/total outer diameter of the myelinated fiber) [2] | total density of activated Iba1+ microglia in the spinal cord [2] | EAE clinical score [2] | area occupied by Arg1+ cells as percentage of the total area of the lesion [2] | percentage of abnormal axons among total axons [2] | GFAP-positive area as percentage of the lesion area [2] | Olig2+ BrdU+ proliferating cells as percentage of total Olig2+ cells [3] | myelinated area: area occupied by MBP as percentage of total area occupied by NF200 axons [5] | fold increase in the percentage of PLP+ cells co-expressing MBP compared to control [4] | percentage of PLP+ cells co-expressing MBP [4] | other results
1 | CN[C@H]1CC[C@H](N(Cc2cccc(-c3ccncc3)c2)C(=O)c2sc3ccccc3c2Cl)CC1 [SAG, 3-Chloro-N-[trans-4-(methylamino)cyclohexyl]-N-[[3-(4-pyridinyl)phenyl]methyl]benzo[b]thiophene-2-carboxamide] | much higher density of myelinated axons | 0.737±0.005 | Neither testosterone nor SAG was found to significantly modify | ~1.0 | 10.9±1.7% | 14.0±1.7% | 25.1±2.2% | 8.4±0.5% | – | – | – | Iba1+ microglia versus control ([1]; 2 dpl): unaffected; area occupied by GFAP+ astrocytes versus control ([1]; 2 dpl): tended to be decreased; density of Arg1+ pro-regenerative microglia ([1]; 2 dpl): 103±7 cells per surface unit; density of proliferating Ki67+ PDGFRα+ OPCs ([1]; 2 dpl): 39±2 cells per surface unit; fold enhancement of the density of Arg1+ microglia ([1]; 2 dpl): 2 fold; fold increase of the proportion of Iba1 microglia co-expressing Arg1 ([1]; 2 dpl): two-fold; proportion of Iba1 microglia co-expressing Arg1 ([1]; 2 dpl): 58±5%; total number of PDGFRα+ OPCs versus control ([1]; 2 dpl): remained unchanged; density of Olig2+ APC+ mature OLs ([1]; 10 dpl): 83±7 cells per surface unit; fold increase in PDGFRα+ cells compared to controls ([1]; 10 dpl): 2 fold; proportion of mature OLs versus control ([1]; 10 dpl): not significantly different; PDGFRα+ cells (OPCs) per unit surface ([1]; 10 dpl, SAG 0.2 μM injected with LPC): 121±11 cells per surface unit; Claudin 5-positive area as percentage of the lesion area ([2]; blood brain barrier tight junction marker, FIG. 5H): 2.35±0.27%; Effect on Mbp expression when used alone ([4]; SAG 0.1 μM or 1 μM alone): did not modify Mbp expression; Effect on testosterone-mediated OL differentiation ([4]; SAG 0.1 μM or 1 μM with testosterone 1 μM): slight but significant decrease
2 | Cc1nn(-c2ccccc2)c(C)c1C=NN1CCN(Cc2ccccc2)CC1 [SANT-1, (4-Benzyl-piperazin-1-yl)-(3,5-dimethyl-1-phenyl-1H-pyrazol-4-ylmethylene)-amine] | – | – | – | – | – | – | – | – | 75.1±4.3% | 4 fold | 12.4±0.8% | Effect on testosterone-induced increase in Olig2+ BrdU+ cells ([3]; SANT-1 0.1 μM with testosterone 1 μM): blocks testosterone-induced increase
3 | N#Cc1ccc(C2CCCc3cncn32)cc1 (stereo not shown) [fadrozole] | – | – | – | – | – | – | – | – | – | – | – | effect on the testosterone-induced increase of phosphorylated STAT3-expressing astrocytes ([6]; fadrozole per oral route 260 μg/kg with intranasal testosterone, 7 days): inhibited
4 | C[C@]12CC[C@H]3[C@@H](CCC4=CC(=O)CC[C@@]43C)[C@@H]1CC[C@@H]2O [testosterone] | much higher density of myelinated axons | 0.773±0.003 | Neither testosterone nor SAG was found to significantly modify | ~2.0 | 6.8±1.4% | 15.8±1.4% | 38.8±1.8% | 3.8±0.6% | 78.0±4.1% | 4 fold | 11.7±1.5% | number of GFAP+ astrocytes expressing phosphorylated STAT3 ([6]; 7 days post-lesion, intranasal testosterone 0.2 mg/day or intranasal estradiol 0.05 mg/day): increased
